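Cells were grown in 96-well plates and exposed to each compound for 48 hours at five concentrations; endpoints were interpolated linearly between bracketing concentrations, or set to the highest concentration if not reached. At the GI50, growth is halved.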 Activity calls are given as the source filed them. No stated cut-off is given here; in the data, active = GI50 up to about 1.1 µM and inactive = higher.
Tests used:
Test in all cases: inhibition of tumour cell growth, NCI panel, 48 h
DU-145 = system: DU-145
SNB-19 = system: SNB-19
SR = system: SR
KM12 = system: KM12
MDA-MB-231 = system: MDA-MB-231
HCC 2998 = system: HCC 2998
NCI-H23 = system: NCI-H23
HCT-15 = system: HCT-15
SNB-75 = system: SNB-75
NCI-H522 = system: NCI-H522
OVCAR-5 = system: OVCAR-5
NCI-H226 = system: NCI-H226
SK-MEL-5 = system: SK-MEL-5
A549 = system: A549
NCI-H460 = system: NCI-H460
SF-295 = system: SF-295
SF-539 = system: SF-539
UACC-257 = system: UACC-257
NCI/ADR-RES = system: NCI/ADR-RES
RXF 393 = system: RXF 393

Structure (SMILES)	GI50 (DU-145)	GI50 (SNB-19)	GI50 (SR)	GI50 (KM12)	GI50 (MDA-MB-231)	GI50 (HCC 2998)	GI50 (NCI-H23)	GI50 (HCT-15) [nM]	GI50 (SNB-75)	GI50 (NCI-H522)	GI50 (OVCAR-5)	GI50 (NCI-H226)	GI50 (SK-MEL-5)	GI50 (A549)	GI50 (NCI-H460)	GI50 (SF-295)	GI50 (SF-539)	GI50 (UACC-257)	GI50 (NCI/ADR-RES)	GI50 (RXF 393)
CC(C)=CCC[C@@H](C)C1=C(Nc2ccccc2Cl)C(=O)C(C)=C(O)C1=O	6640 nM (inactive)	4490 nM (inactive)	1200 nM (inactive)	3080 nM (inactive)	4610 nM (inactive)	6180 nM (inactive)	2840 nM (inactive)	2380	1870 nM (inactive)	2570 nM (inactive)	14600 nM (inactive)	4690 nM (inactive)	1950 nM (inactive)	3240 nM (inactive)	2430 nM (inactive)	2880 nM (inactive)	3790 nM (inactive)	6460 nM (inactive)	1100 nM (active)	11700 nM (inactive)
O=C1Nc2ccccc2/C1=N/NC(=S)N1CCCCCC1	2200 nM (inactive)	1540 nM (inactive)	212 nM (active)	283 nM (active)	560 nM (active)	1520 nM (inactive)	1210 nM (inactive)	450	1690 nM (inactive)	2470 nM (inactive)	2590 nM (inactive)	1360 nM (inactive)	72.3 nM (active)	643 nM (active)	90 nM (active)	1000 nM (active)	168 nM (active)	2540 nM (inactive)	76.9 nM (active)	644 nM (active)
COc1ccc(C2SCC(=O)N2NC(=O)C(C)Oc2ccccc2Cl)cc1 (stereo not given)	94800 nM (inactive)	69200 nM (inactive)	26100 nM (inactive)	35900 nM (inactive)	26900 nM (inactive)	> 100000 nM (inactive)	67800 nM (inactive)	49800	56600 nM (inactive)	51900 nM (inactive)	> 100000 nM (inactive)	51600 nM (inactive)	24500 nM (inactive)	35500 nM (inactive)	70100 nM (inactive)	45000 nM (inactive)	> 100000 nM (inactive)	> 100000 nM (inactive)	63200 nM (inactive)	27700 nM (inactive)
Cc1c(N)nc(C(CC(N)=O)NCC(N)C(N)=O)nc1C(=O)NC(C(=O)NC(C)C(O)C(C)C(=O)NC(C(=O)NCCc1nc(-c2nc(C(=O)NCCCNC(C)c3ccccc3)cs2)cs1)C(C)O)C(OC1OC(CO)C(O)C(O)C1OC1OC(CO)C(O)C(OC(N)=O)C1O)c1c[nH]cn1 (stereo not given)	7290 nM (inactive)	8390 nM (inactive)	2300 nM (inactive)	16600 nM (inactive)	> 50000 nM (inactive)	21600 nM (inactive)	753 nM (active)	5240	296 nM (active)	2650 nM (inactive)	5960 nM (inactive)	184 nM (active)	1050 nM (active)	847 nM (active)	48.2 nM (active)	163 nM (active)	23.3 nM (active)	22300 nM (inactive)	1570 nM (inactive)	156 nM (active)
CC1(C)CC(O)C2=C(O1)C(=O)c1ncccc1C2=O (stereo not given)	5070 nM (inactive)	4650 nM (inactive)	2340 nM (inactive)	3480 nM (inactive)	2290 nM (inactive)	5410 nM (inactive)	1640 nM (inactive)	4020	530 nM (active)	1290 nM (inactive)	1890 nM (inactive)	1870 nM (inactive)	1660 nM (inactive)	9510 nM (inactive)	2520 nM (inactive)	1830 nM (inactive)	1840 nM (inactive)	1710 nM (inactive)	1500 nM (inactive)	3400 nM (inactive)
Oc1cccc(-c2nc3cc(F)ccc3s2)c1	18700 nM (inactive)	24400 nM (inactive)	18000 nM (inactive)	11900 nM (inactive)	15900 nM (inactive)	9020 nM (inactive)	16600 nM (inactive)	11200	11100 nM (inactive)	10600 nM (inactive)	21400 nM (inactive)	9460 nM (inactive)	10700 nM (inactive)	23600 nM (inactive)	18600 nM (inactive)	20600 nM (inactive)	19400 nM (inactive)	13900 nM (inactive)	17400 nM (inactive)	25900 nM (inactive)
CC[C@](O)(CC(=O)O[C@H]1C(=O)O[C@@H]2C[C@H]3C(C)=CC(=O)[C@@H](O)[C@]3(C)[C@H]3[C@@]4(O)OC[C@]32[C@@H]1[C@@H](C)[C@H]4O)C(C)C	< 10 nM (active)	< 10 nM (active)	< 10 nM (active)	< 10 nM (active)	< 10 nM (active)	< 10 nM (active)	< 10 nM (active)	< 10	< 10 nM (active)	< 10 nM (active)	< 10 nM (active)	< 10 nM (active)	< 10 nM (active)	< 10 nM (active)	< 10 nM (active)	< 10 nM (active)	< 10 nM (active)	< 10 nM (active)	< 18.8 nM (active)	< 10 nM (active)
